Among the data in patent US9056874B2, “Complement pathway modulators and uses thereof” (NOVARTIS AG, priority 2012, dated 2015) are IC50 values, retold here.

The term IC50 denotes the concentration that inhibits the measured activity by half.

This test concerns the target factor B (Homo sapiens, UniProt P00751). As to the kind of experiment: assay of Biological Example 2.7. The format is binding. Set-up: made in house; host or cells: drosophila cells. Conditions: assay of Biological Example 2.7 (Table 2).

factor B, sequence (P00751 26-764): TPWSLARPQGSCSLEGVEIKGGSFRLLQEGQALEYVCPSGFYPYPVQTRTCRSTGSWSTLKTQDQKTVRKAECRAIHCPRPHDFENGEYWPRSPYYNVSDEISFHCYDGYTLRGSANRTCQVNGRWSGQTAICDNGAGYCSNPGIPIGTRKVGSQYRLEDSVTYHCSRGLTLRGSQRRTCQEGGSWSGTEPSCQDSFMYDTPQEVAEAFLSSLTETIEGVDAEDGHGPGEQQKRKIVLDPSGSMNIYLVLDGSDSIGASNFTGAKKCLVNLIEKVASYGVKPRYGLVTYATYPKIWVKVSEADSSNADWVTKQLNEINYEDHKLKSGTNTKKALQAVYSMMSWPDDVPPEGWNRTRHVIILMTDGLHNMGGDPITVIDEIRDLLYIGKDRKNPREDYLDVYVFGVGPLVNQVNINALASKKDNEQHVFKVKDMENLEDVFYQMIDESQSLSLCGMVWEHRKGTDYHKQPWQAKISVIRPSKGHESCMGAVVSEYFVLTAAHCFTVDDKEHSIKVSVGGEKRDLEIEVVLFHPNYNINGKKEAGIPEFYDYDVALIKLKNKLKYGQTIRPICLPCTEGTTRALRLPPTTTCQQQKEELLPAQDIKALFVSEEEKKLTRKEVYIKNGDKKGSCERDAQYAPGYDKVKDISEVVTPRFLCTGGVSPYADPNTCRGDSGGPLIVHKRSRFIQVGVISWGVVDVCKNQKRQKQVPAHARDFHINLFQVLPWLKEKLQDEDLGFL

Compound `CCOC(=O)COC(c1nc2cc(C#N)ccc2[nH]1)(c1c(OC)cc(C)c2[nH]ccc12)C(F)(F)F` (single isomer, unassigned) [Example 35-D, (+) or (−)-Ethyl 2-(1-(5-cyano-1H-benzo[d]imidazol-2-yl)-2,2,2-trifluoro-1-(5-methoxy-7-methyl-1H-indol-4-yl)ethoxy)acetate] displayed a half-inhibitory concentration (IC50) of 24 nM.

`Cc1cc(O)c(C(N)(c2nc3cc(C#N)ccc3[nH]2)C(F)(F)F)c2cc[nH]c12` (single isomer, unassigned) [Example 141, (+) or (−)-2-(1-amino-2,2,2-trifluoro-1-(5-hydroxy-7-methyl-1H-indol-4-yl)ethyl)-1H-benzo[d]imidazole-5-carbonitrile] came in with a half-maximal inhibitory concentration (IC50) of 150 nM.

On to `Cc1cc(Br)c(C(C)(N)c2nc3cc(C#N)ccc3[nH]2)c2cc[nH]c12` (single isomer, unassigned; (+)) [137-A b) (+), (+)-2-(1-amino-1-(5-bromo-7-methyl-1H-indol-4-yl)ethyl)-1H-benzo[d]imidazole-5-carbonitrile], for which half-maximal inhibition (IC50) required 120 nM.

`[2H]C([2H])([2H])OC(C)(c1nc2cc(C#N)ccc2[nH]1)c1c(OC)cc(C)c2[nH]ccc12` (single isomer, unassigned; (+)) [137-I b) (+), (+)-2-(1-(^2H3)methoxy-1-(5-methoxy-7-methyl-1H-indol-4-yl)ethyl)-1H-benzo[d]imidazole-5-carbonitrile] came in with an IC50 of 110 nM.

The compound `[2H]C([2H])([2H])OC(c1nc2cc(C#N)ccc2[nH]1)(c1c(OC)cc(C)c2[nH]ccc12)C(F)(F)F` (single isomer, unassigned; (+)) [137-J b) (+), (+)-2-(2,2,2-trifluoro-1-(^2H3)-methoxy-1-(5-methoxy-7-methyl-1H-indol-4-yl)ethyl)-1H-benzo[d]imidazole-5-carbonitrile] returned an IC50 of 1300 nM. Against the preceding compound, the IC50 is about 12-fold higher.

In turn, `COc1cc(C)c2[nH]ccc2c1C(C)(OC)c1nc2cc(C#N)ccc2o1` (single isomer, unassigned; (+)) [137-K b) (+), (+)-2-(1-methoxy-1-(5-methoxy-7-methyl-1H-indol-4-yl)ethyl)benzo[d]oxazole-5-carbonitrile] yielded a half-inhibitory concentration (IC50) of 820 nM.

Take `COC(C)(c1nc2cc(C#N)ccc2o1)c1c(C2CC2)cc(C)c2[nH]ccc12` (single isomer, unassigned; (+)) [137-L b) (+), (+)-2-(1-(5-cyclopropyl-7-methyl-1H-indol-4-yl)-1-methoxyethyl)benzo[d]oxazole-5-carbonitrile]: 720 nM corresponded to half-maximal inhibition (IC50).

In turn, `COc1cc(C)c2[nH]ccc2c1C(C)(O)c1nc2cc(C#N)ccc2o1` (single isomer, unassigned; (+)) [137-N b) (+), (+)-2-(1-hydroxy-1-(5-methoxy-7-methyl-1H-indol-4-yl)ethyl)benzo[d]oxazole-5-carbonitrile] had an IC50 of 40 nM. Against the preceding compound, the IC50 is about 18-fold lower.

Regarding `COc1cc(C)c2[nH]cc3c2c1C(c1nc2cc(C#N)ccc2[nH]1)(C(F)(F)F)NC3` (single isomer, unassigned; (+)) [Example 36-F, (+)-2-(6-methoxy-8-methyl-5-(trifluoromethyl)-1,3,4,5-tetrahydropyrrolo[4,3,2-de]isoquinolin-5-yl)-1H-benzo[d]imidazole-5-carbonitrile], the IC50 came to 12 nM.

Compound `COc1cc(C)c2[nH]ccc2c1C(CC(=O)O)c1nc2cc(C#N)ccc2o1` (single isomer, unassigned; (+)) [Example 148-D, (+)-3-(5-cyanobenzo[d]oxazol-2-yl)-3-(5-methoxy-7-methyl-1H-indol-4-yl)propanoic acid] registered a concentration for half-maximal inhibition (IC50) of 340 nM.

Turning to `COc1cc(C)c2[nH]ccc2c1C(CCC(=O)O)c1nc2cc(C#N)ccc2o1` (single isomer, unassigned; (+)) [Example 149-C, (+)-4-(5-cyanobenzo[d]oxazol-2-yl)-4-(5-methoxy-7-methyl-1H-indol-4-yl)butanoic acid], it took 160 nM to reach half-maximal inhibition (IC50). This IC50 lies about 2.1-fold lower than the previous one.
